The source of these data is patent US10273313B2, “Multimeric mannosides, a process for preparing the same and their uses as a drug” (CENTRE NATIONAL DE LA RECHERCHE SCIENTIFIQUE, priority 2012, dated 2019).

Data set [1] concerns CD-associated E. coli strain AIEC LF82. The data set can be described thus: Hemagglutination inhibition (HAI) with AIEC LF82, guinea pig erythrocytes. Type of data set: cell-based, Escherichia coli. The method, then:
AIEC adhesion to the gut occurs through the binding of FimH adhesins to the mannosylated glycans of intestinal cells. This scenario was first mimicked here with the highly mannosylated glycocalyx of guinea pig erythrocytes.
A two-fold dilution series of the antagonists was added to wells containing guinea pig erythrocytes and AIEC LF82 bacteria. The formation of the cross-linked network (hemagglutination) due to the interaction of the E. coli FimH adhesins with the glycocalyx of the erythrocytes was prevented at a certain concentration of inhibitors. The lowest concentration at which hemagglutination is still inhibited is defined as the inhibition titer of the antagonist. HM was included in the assay to obtain a relative inhibitory concentration (rIC) for the antagonists by dividing the inhibitory concentration (IC) of the substance of interest by the value for HM. In fact, rICs are more accurate than rough inhibition titers to compare the potency of antagonists evaluated in different assays.

For the next data set, the system named is Caco-2 cells. Kind of data set: Blockage of cytotoxic effect of microparticle-FimH, flow cytometry. Type of data set: cell-based. The settings on record: Caco2. An excerpt:
It was shown that upon binding of FimH adhesin to uroplakin UPIIIa its cytoplasmic tail undergoes phosphorylation on a specific threonine residue by casein kinase II, followed by an elevation of intracellular calcium triggering apoptosis (Thumbikat, P.; Berry, R. E.; Zhou, G.; Billips, B. K.; Yaggie, R. E.; Zaichuk, T.; Sun, T.-T.; Schaeffer, A. J.; Klumpp, D. J. PLoS Pathog 2009, 5, e1000415). […] It is needed to mentioned that according to our observations that Caco2 cells, unlike human blood cells, (Bilyy R. O.; Shkandina, T.; Tomin, A.; Muñoz, L E.; Franz, S.; Antonyuk, V.; Kit, Y. Y.; Zirngibl, M.; Fürnrohr, B. G.; Janko, C.; Lauber, K.; Schiller, M.; Schett, G.; Stoika, R. S.; Herrmann, M., J. Biol. Chem. 2012, 287, 496-503) are very quickly converted from apoptotic to secondary necrotic (PI-positive). […]
Cell viability was assessed by a trypan blue exclusion test. […]
Apoptotic cells were identified by using annexin V-FITC and PI, according to the manufacturer's protocol. […] Cells were then resuspended in a solution of annexin V-FITC and PI prepared in Ringer buffer, incubated 30 min at 4° C. in the dark, and analyzed on a FACS scan flow cytometer (BD Biosciences). A minimum of 10,000 events per sample was recorded. […]
On the technique in general: A flow cytometer gives signals particle by particle.

Data set [2] concerns AIEC LF82 bacteria on colonic tissue from transgenic mice expressing human CEACAM6. The data set can be described thus: Ex-vivo adhesion assay on colonic tissue of CEABAC10 mice. More on the design: species or system CEABAC10 transgenic mice. As for the experimental part:
E. coli strain LF82 was isolated from a chronic ileal lesion of a patient with Crohn's disease (CD). Bacteria were grown routinely in Luria-Bertani (LB) broth overnight at 37° C.
Adhesion assay of AIEC LF82 bacteria were performed using colonic tissue from transgenic mice expressing the human CEACAM6 protein (C. H. Chan, C. P. Stanners “Novel mouse model for carcinoembryonic antigen-based therapy”, Mol Ther. 2004; 9, 775-785). Briefly, 10 to 12-week-old FVB/N CEABAC10 transgenic mice were anesthetized, euthanized by cervical dislocation and colons were removed. Colons were washed twice in phosphate buffer saline (PBS) and were segmented in 4 independent loops of ≈0.6 cm. A volume of 100 μL of LF82 bacteria at 2×10^6 bacteria/mL in PBS or of a mix of LF82 bacteria+D-mannose (1 μmol and 10 μmol) or compound 13 (0.1 μmol and 0.01 μmol) were injected into the loops. Loops were incubated 1 h at 37° C. in an atmosphere containing 5% of CO2, and then opened and washed 4 times in PBS. Tissues were homogenized, appropriately diluted and plated onto Luria-Bertani agar plates containing ampicillin (100 μg/mL) and erythromycin (20 μg/mL) to select AIEC LF82 bacteria.
Entire colons from CEABAC10 mice were collected and washed two times with PBS. The colon was divided in 4 isolated loops and 100 μL of a bacterial suspension containing […] bacteria/mL with or without inhibitory compounds were injected into the loops. D-mannose was tested at a dose of 1 and 10 μmol and monovalent 13 was tested at a dose of 0.01 and 0.1 μmol. After a 1 h-period of incubation, samples were extensively washed and homogenized to numerate adherent bacteria. Bacterial adhesion was expressed as percentages of residual adhesion (100% corresponds to the adhesion in absence of any compound).

In the next data set the test system is human Jurkat T-cell line. Kind of data set: Toxicity of 13 towards Jurkat T-cells. In kind it is cell-based. The settings on record: 100 nM.
The target of data set [3] is T1, FimH (Escherichia coli, UniProt P08191). In kind it is binding. The settings on record: competitive ELISA. The method, then: Journal of the American Society for Mass Spectrometry, 2009. […] Tested compounds were added to wells following with FimH treatment.
Plates were coated with 100 μl of 10 mg/ml solution of RNAse-B in 100 mM carbonate/bicarbonate buffer pH 9.6. […] 2 h. Then washed three times with 10 mM PBS containing 0.05% Tween-20. […] Wells were washed three times with 10 mM PBS+0.05% Tween-20. 100 μl of anti-body conjugated to horseradish peroxidase (1:5000) was added in buffer and incubated for 1 h at room temperature. Then washed three times with 10 mM PBS+0.05% Tween-20. Added 100 μl of TMB and incubated in dark for 2-5 min. The reaction was stopped with 100 μl/well 1N sulfuric acid. Plate absorbance was analyzed at 450 nm using microplate reader.
Target sequence in this assay (P08191 22-300): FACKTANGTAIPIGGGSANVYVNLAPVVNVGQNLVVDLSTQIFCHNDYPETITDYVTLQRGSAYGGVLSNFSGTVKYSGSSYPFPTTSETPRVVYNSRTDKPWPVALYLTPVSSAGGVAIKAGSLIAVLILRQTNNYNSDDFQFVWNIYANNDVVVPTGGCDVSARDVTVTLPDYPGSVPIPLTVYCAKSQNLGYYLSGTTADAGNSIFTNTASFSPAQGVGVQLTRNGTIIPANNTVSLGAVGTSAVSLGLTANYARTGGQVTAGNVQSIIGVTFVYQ
In general terms: In an ELISA, binding on a coated surface is turned into a signal by an enzyme label.

For data set [4], the system named is AIEC strain LF82 adhesion to T84 intestinal epithelial cells. The data set can be described thus: Adhesion assay on T84 cells with thiazolylaminomannosides (Example 22.3). Type of data set: cell-based, Escherichia coli. The method, then: T84 Intestinal Epithelial cells (overexpressing the receptor CEACAM6) were beforehand incubated for 1 h with the synthetic thiazolylaminomannosides 6-20 (examples 3-17) at different concentrations. Each compound was tested four times at concentrations of 0.1, 1, 10 and 100 μM.
The cells were then infected in the presence of inhibitory compounds by the AIEC strain of reference LF82 for 3 hours at a multiplicity of infection of 10 bacteria to a cell. After 3 h of incubation, the monolayer was washed and the number of AIEC bacteria associated with cells was counted. The level of adhesion of AIEC LF82 strain in the presence of inhibitors (residual adhesion) was expressed relatively to the level of adherence in the absence of any treatment (considered 100%) (FIG. 10).

In data set [5] the target is T1, FimH. Kind of data set: Isothermal titration calorimetry of compound 6. Type of data set: binding. As for the experimental part: For compound 6 (example 3), the enthalpy, the affinity equilibrium constant Ka and the molar ratio have moreover been measured using ITC. Integrated heat effects were analyzed by nonlinear regression using a single-site binding model (Origin 7.0). The experimental data fitted to a theoretical titration curve gave the association constant (Ka), the enthalpy of binding (ΔH) and the molar ratio n. The entropic contribution to the affinity and the change in Gibbs free energy (ΔG) have been calculated from the equation ΔG=ΔH−TΔS=−RTlnKa, where T is the absolute temperature and R is the molar gas constant (8.314 J·mol−1·K−1).
Target sequence in this assay (P08191 22-179): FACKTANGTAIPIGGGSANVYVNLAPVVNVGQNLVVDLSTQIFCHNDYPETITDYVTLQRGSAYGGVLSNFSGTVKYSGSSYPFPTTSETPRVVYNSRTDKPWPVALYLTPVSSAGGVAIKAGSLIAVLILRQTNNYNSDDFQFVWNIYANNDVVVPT
(ITC needs no label: the signal is the heat of the interaction.)

In another data set the test system is human Jurkat cells. The data set can be described thus: Prevention of FimH-induced apoptosis of Jurkat cells (24 h). The method, then:
Eventually, we tested the ability of mannose-based inhibitors to prevent the induction of cell death of human Jurkat cells under the treatment with FimH. We cultures cells with the indicated compound for 24 h and counter percentage of viable (AnV−/Pi−), apoptotic (AnV+/Pi−) and necrotic cells (AnV+/PI+). […] 2. […] 3.
Apoptosis was induced by UV-B irradiation with 90 mJ/cm^2, apoptosis of human PMN cells was induced by 24 h aging. To quantify the rate of apoptosis, cells were analyzed by flow cytometry or fluorescent microscopy. Amongst other features, apoptosis is characterized by blebbing of the cellular membrane, leading to a decrease in the forward scatter (FSC) and an increase in the sideward scatter (SSC). For detection of phosphatidylserine (PS) exposure on the cell surface staining with FITC conjugated annexin V (Böhringer, Mannheim, Germany) in combination with propidium iodide (PI) (AxV/PI) was performed. 200.000 cells were stained for 30 minutes at 4° C. with 200 ng of AxV-FITC and 500 ng propidium iodide (PI) in 500 μl Ringer's solution [Nicoletti, Migliorati, Pagliacci, Grignani and Riccardi, A rapid and simple method for measuring thymocyte apoptosis by propidium iodide staining and flow cytometry. J Immunol Methods, 1991. 139.271-9]. The samples were immediately analyzed by flow cytometry of fluorescent microscopy.

Another data set concerns UTI89 E. coli. The data set can be described thus: Inhibition of haemagglutination (Example 19). Type of data set: cell-based, Escherichia coli. The settings on record: two-fold dilution from 1 mM. As for the experimental part: Interaction of E. coli FimH adhesins with the glycocalyx of guinea pig erythrocytes forms a cross-linked network into the wells. Glycoconjugates added in a two-fold dilution series prevents the agglutination reaction. The inhibition titer is defined as the lowest concentration of the glycoconjugate at which haemagglutination is still inhibited. UTI89 E. coli were grown statically overnight in LB at 37° C., washed three times in ice-cold phosphate-buffered saline and resolubilized. A two-fold dilution of glycoconjugates was prepared in 25 μL 20 mM HEPES pH 7.4 with 150 mM NaCl, starting from 1 mM as the highest concentration. The bacterial solution (25 μL) was added to the two-fold dilution series of the compound. Finally 50 μl of guinea pig red blood cells, washed in buffer and diluted to 5%, were added to a final 100 μL and left on ice for 30 min. before read-out. Due to serial dilutions, the maximal error is ±one well, or a factor two (FIG. 2).

The target in a further data set is T2, lectin domain of FimH (Escherichia coli, UniProt P08191).
T2 construct: The lectin domain of FimH was expressed as described previously and purified at pH 4.0; made in house
T2 sequence (P08191 22-179): as above
Kind of data set: Surface plasmon resonance solution competition assay. Type of data set: binding. The note with it: solution affinity. The method, then:
The affinity of the compounds was first evaluated and then measured in a surface plasmon resonance solution competition assay. The lectin domain of FimH was expressed as described previously and purified at pH 4.0 in 50 mM HCOOH on a SPFF (sulfopropyl fast flow) ion exchange column (GE Healthcare). A CM5 sensor chip (Biacore, GE Healthcare) has been coated with a layer of amino-functionalized monovalent heptyl mannoside to 60 RU (response units) and the kinetics of FimH binding to the sensor chip has been determined. All data collection have been performed in HBS buffer complemented with 3 mM EDTA and 0.01% Tween20. Regeneration was done with a single 10 s injection of 100 mM NaOH in water.
The solution affinity provided by the Biacore software uses the equation (B−A−Kd)/2+(0.25*(A+B+Kd)^2−A*B)^0.5, with B presenting the uninhibited concentration of FimH, and A the variable compound concentration.

Regarding `Cc1nc(-c2cnccn2)sc1C(=O)c1cnc(N[C@H]2OC(CO)[C@@H](O)[C@H](O)C2O)s1` (mixture of isomers) [Compound 13, 2-(α-D-mannopyranosyl)amino-5-(4-methyl-2-(pyrazin-2-yl)thiazole-5-carbonyl)thiazole], in data set [1], the “Inhibitory potency in HAI (in words)” value is recorded as “second most potent compound”. In addition, the “Effect on amount of dead cell in population” value in the data set with Caco-2 cells (100 nM alone) was “no significant effect”. In the data set with Caco-2 cells (co-treatment with microparticles-FimH and 100 nM), the “Dead cells in population” value is 16.5%. Also, the “Efficiency relative to D-mannose” value in data set [2] stood at 100 fold. In addition, the Bacterial adhesion result in [2] (0.1 μmol, 1 h) was “significant decrease”. For the same molecule, the “Toxicity towards human blood cells (Jurkat T-cell line)” value with human Jurkat T-cell line is “nontoxic”. The “Level of inhibition compared to the HM reference” value on FimH [3] was “significantly higher level of inhibition”. Moreover, the “Concentration blocking FimH binding towards oligomannose glycans” value at FimH [3] (RNAseB substrate) is listed as 5 nM. The values for the Residual adhesion in data set [4] (0.1 μM) and in data set [4] (10 μM) were 57.6% and 2.12%, respectively. Moreover, the “Inhibitory effect on adhesion” value in [4] (100 nM) is recorded as “significant inhibitory effect”. Further, in data set [4] (1 μM), the “AIEC remaining attached to the cells (residual adhesion)” value amounted to 14%. Also, the “rIC relative to HM” value in data set [4] (dose-dependent inhibition similar to HM at 100-fold lower concentration) is ~0.01.

For orientation: Kd means the concentration at which binding is half-saturated. High values mean lower affinity, low ones higher affinity. Regarding `CC(=O)c1cnc(N[C@H]2O[C@H](CO)[C@@H](O)[C@H](O)[C@@H]2O)s1` [Compound 6, 5-acetyl-2-((α-D-mannopyranosyl)amino)thiazole], the “Inhibitory potency in HAI (in words)” value in [1] is “less potent than HM”. Besides, the Kd on FimH [5] came to 0.197 µM; on lectin domain of FimH (measurement 1) it was 0.216 µM; on lectin domain of FimH (measurement 2) it was 0.22 ± 0.00771 µM. Further, the “Prevention of apoptosis induction by FimH” value in the data set on human Jurkat cells (500 nM) is reported as “effectively prevented apoptosis induction”. Further, the “Toxicity to Jurkat cells” value in the data set with human Jurkat cells (tested concentrations, 24 h) was “not toxic”. Besides, the “Inhibitory potency in haemagglutination (FIG. 2)” value in the data set with UTI89 E. coli was “equivalent to the one for HM”.
